Test system: 994946-033-R-J1-PDC complex spheroid viability
Test: Anticancer human tumor 994946-033-R-J1-PDC patient-derived melanoma cell line growth inhibition [POLQ]
Settings: for IC50: curve of first compound; for viability, T/C: stronger effect = lower value
Procedure, shortened: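 Patient-derived tumour cells were co-cultured with HUVEC and mesenchymal stem cells as multicellular spheroids at 37 °C. They were treated with POLQ inhibitors (novobiocin, ART-558, RP6685) alone or combined with other agents. Top concentrations were at or near clinical Cmax (otherwise 10 microM; SN-38 at 1 microM), decreasing in half-log steps.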

[1] = second compound 0.0316 µM, first compound 0.0316 µM
[2] = second compound 0.0316 µM, first compound 0.1 µM
[3] = second compound 0.0316 µM, first compound 0.316 µM
[4] = second compound 0.0316 µM, first compound 1 µM
[5] = second compound 0.0316 µM, first compound 3.16 µM
[6] = second compound 0.0316 µM, first compound 10 µM
[7] = second compound 0.1 µM, first compound 0.0316 µM
[8] = second compound 0.1 µM, first compound 0.1 µM
[9] = second compound 0.1 µM, first compound 0.316 µM
[10] = second compound 0.1 µM, first compound 1 µM
[11] = second compound 0.1 µM, first compound 3.16 µM
[12] = second compound 0.1 µM, first compound 10 µM
[13] = second compound 0.316 µM, first compound 0.0316 µM
[14] = second compound 0.316 µM, first compound 0.1 µM
[15] = second compound 0.316 µM, first compound 0.316 µM
[16] = second compound 0.316 µM, first compound 1 µM
[17] = second compound 0.316 µM, first compound 3.16 µM
[18] = second compound 0.316 µM, first compound 10 µM
[19] = second compound 1 µM, first compound 0.0316 µM
[20] = second compound 1 µM, first compound 0.1 µM
[21] = second compound 1 µM, first compound 0.316 µM
[22] = second compound 1 µM, first compound 1 µM
[23] = second compound 1 µM, first compound 3.16 µM
[24] = second compound 1 µM, first compound 10 µM
[25] = second compound 3.16 µM, first compound 0.0316 µM
[26] = second compound 3.16 µM, first compound 0.1 µM
[27] = second compound 3.16 µM, first compound 0.316 µM
[28] = second compound 3.16 µM, first compound 1 µM
[29] = second compound 3.16 µM, first compound 3.16 µM
[30] = second compound 3.16 µM, first compound 10 µM
[31] = second compound 10 µM, first compound 0.0316 µM
[32] = second compound 10 µM, first compound 0.1 µM
[33] = second compound 10 µM, first compound 0.316 µM
[34] = second compound 10 µM, first compound 1 µM
[35] = second compound 10 µM, first compound 3.16 µM
[36] = second compound 10 µM, first compound 10 µM
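Note: spheroids exposed to drugs for 7 days.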
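Throughout, for viability, T/C: 100% = DMSO vehicle treated spheroids.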

Work on `O=C(Nc1ccc(O)c(NS(=O)(=O)c2ccc(F)cc2)c1)c1ccc(-c2ccccc2)cc1` + COC1C(OC(N)=O)C(O)C(Oc2ccc3c(O)c(NC(=O)c4ccc(O)c(CC=C(C)C)c4)c(=O)oc3c2C)OC1(C)C yielded an IC50 (second compound 0.0316 µM) of 6640 nM, an IC50 (second compound 0.1 µM) of 6290 nM and an IC50 (second compound 0.316 µM) of 6090 nM. For the same compound, the IC50 (second compound 1 µM) was 6300 nM, the IC50 (second compound 3.16 µM) was 5450 nM and the IC50 (second compound 10 µM) was 4580 nM. The viability, T/C [1] was 87.9%, the viability, T/C [2] was 103% and the viability, T/C [3] was 101%. It also gave a viability, T/C [4] of 111%, a viability, T/C [5] of 93% and a viability, T/C [6] of 25.9%. For the same compound, the viability, T/C [7] was 96%, the viability, T/C [8] was 105% and the viability, T/C [9] was 80.2%. The viability, T/C [10] was 94.4%, the viability, T/C [11] was 82.6% and the viability, T/C [12] was 27.9%. The viability, T/C [13] was 99%, the viability, T/C [14] was 123% and the viability, T/C [15] was 84.3%. The viability, T/C [16] was 87.3%, the viability, T/C [17] was 85.1% and the viability, T/C [18] was 27.6%. It also gave a viability, T/C [19] of 100%, a viability, T/C [20] of 81.8% and a viability, T/C [21] of 109%. For the same compound, the viability, T/C [22] was 111%, the viability, T/C [23] was 78% and the viability, T/C [24] was 31.1%. The viability, T/C [25] was 97.8%, the viability, T/C [26] was 103% and the viability, T/C [27] was 92.3%. The viability, T/C [28] was 83.5%, the viability, T/C [29] was 66.2% and the viability, T/C [30] was 32.4%. It also gave a viability, T/C [31] of 82.2%, a viability, T/C [32] of 102% and a viability, T/C [33] of 84.5%. It also gave a viability, T/C [34] of 129%, a viability, T/C [35] of 60.1% and a viability, T/C [36] of 28.5%.

In the case of `COc1cc(C2c3cc4c(cc3C(OC3OC5COC(C)OC5C(O)C3O)C3COC(=O)C23)OCO4)cc(OC)c1O` (centres undefined) + COC1C(OC(N)=O)C(O)C(Oc2ccc3c(O)c(NC(=O)c4ccc(O)c(CC=C(C)C)c4)c(=O)oc3c2C)OC1(C)C, the IC50 (second compound 0.0316 µM) is reported as 690 nM, the IC50 (second compound 0.1 µM) is reported as 237 nM and the IC50 (second compound 0.316 µM) is reported as 254 nM. It also gave an IC50 (second compound 1 µM) of 539 nM, an IC50 (second compound 3.16 µM) of 274 nM and an IC50 (second compound 10 µM) of 588 nM. The viability, T/C [1] was 77.1%, the viability, T/C [2] was 78.6% and the viability, T/C [3] was 46%. The viability, T/C [4] was 61%, the viability, T/C [5] was 12.8% and the viability, T/C [6] was 6.71%. For the same compound, the viability, T/C [7] was 95.9%, the viability, T/C [8] was 58.9% and the viability, T/C [9] was 44%. It also gave a viability, T/C [10] of 38.7%, a viability, T/C [11] of 13% and a viability, T/C [12] of 7.35%. The viability, T/C [13] was 118%, the viability, T/C [14] was 70.7% and the viability, T/C [15] was 40.2%. The viability, T/C [16] was 36.7%, the viability, T/C [17] was 14.5% and the viability, T/C [18] was 6.69%. It also gave a viability, T/C [19] of 88.3%, a viability, T/C [20] of 67.1% and a viability, T/C [21] of 63.5%. The viability, T/C [22] was 41.2%, the viability, T/C [23] was 18.5% and the viability, T/C [24] was 7.04%. It also gave a viability, T/C [25] of 109%, a viability, T/C [26] of 60.7% and a viability, T/C [27] of 53.2%. For the same compound, the viability, T/C [28] was 36.3%, the viability, T/C [29] was 10.2% and the viability, T/C [30] was 7.78%. The viability, T/C [31] was 111%, the viability, T/C [32] was 70.2% and the viability, T/C [33] was 57.8%. For the same compound, the viability, T/C [34] was 52.3%, the viability, T/C [35] was 14.9% and the viability, T/C [36] was 5.69%.
